Laboratory results as given in patent publication US20100190788A1, “Amide derivatives as kinase inhitors” (priority 2005, published 2010).
Where a name gives a salt, the structure may show the parent alone.

Molecular target: T1, human ROCKα/ROCKII mix (Homo sapiens, UniProt O75116)
T1 construct: purchased Upstate Biotechnology 14-451
Test: ROCK inhibition, fluorescence polarization (FP) assay with ROCK IMAP Kit
Format: biochemical
Details: Table 4, compounds 132 to 156

T1 sequence (O75116 whole entry): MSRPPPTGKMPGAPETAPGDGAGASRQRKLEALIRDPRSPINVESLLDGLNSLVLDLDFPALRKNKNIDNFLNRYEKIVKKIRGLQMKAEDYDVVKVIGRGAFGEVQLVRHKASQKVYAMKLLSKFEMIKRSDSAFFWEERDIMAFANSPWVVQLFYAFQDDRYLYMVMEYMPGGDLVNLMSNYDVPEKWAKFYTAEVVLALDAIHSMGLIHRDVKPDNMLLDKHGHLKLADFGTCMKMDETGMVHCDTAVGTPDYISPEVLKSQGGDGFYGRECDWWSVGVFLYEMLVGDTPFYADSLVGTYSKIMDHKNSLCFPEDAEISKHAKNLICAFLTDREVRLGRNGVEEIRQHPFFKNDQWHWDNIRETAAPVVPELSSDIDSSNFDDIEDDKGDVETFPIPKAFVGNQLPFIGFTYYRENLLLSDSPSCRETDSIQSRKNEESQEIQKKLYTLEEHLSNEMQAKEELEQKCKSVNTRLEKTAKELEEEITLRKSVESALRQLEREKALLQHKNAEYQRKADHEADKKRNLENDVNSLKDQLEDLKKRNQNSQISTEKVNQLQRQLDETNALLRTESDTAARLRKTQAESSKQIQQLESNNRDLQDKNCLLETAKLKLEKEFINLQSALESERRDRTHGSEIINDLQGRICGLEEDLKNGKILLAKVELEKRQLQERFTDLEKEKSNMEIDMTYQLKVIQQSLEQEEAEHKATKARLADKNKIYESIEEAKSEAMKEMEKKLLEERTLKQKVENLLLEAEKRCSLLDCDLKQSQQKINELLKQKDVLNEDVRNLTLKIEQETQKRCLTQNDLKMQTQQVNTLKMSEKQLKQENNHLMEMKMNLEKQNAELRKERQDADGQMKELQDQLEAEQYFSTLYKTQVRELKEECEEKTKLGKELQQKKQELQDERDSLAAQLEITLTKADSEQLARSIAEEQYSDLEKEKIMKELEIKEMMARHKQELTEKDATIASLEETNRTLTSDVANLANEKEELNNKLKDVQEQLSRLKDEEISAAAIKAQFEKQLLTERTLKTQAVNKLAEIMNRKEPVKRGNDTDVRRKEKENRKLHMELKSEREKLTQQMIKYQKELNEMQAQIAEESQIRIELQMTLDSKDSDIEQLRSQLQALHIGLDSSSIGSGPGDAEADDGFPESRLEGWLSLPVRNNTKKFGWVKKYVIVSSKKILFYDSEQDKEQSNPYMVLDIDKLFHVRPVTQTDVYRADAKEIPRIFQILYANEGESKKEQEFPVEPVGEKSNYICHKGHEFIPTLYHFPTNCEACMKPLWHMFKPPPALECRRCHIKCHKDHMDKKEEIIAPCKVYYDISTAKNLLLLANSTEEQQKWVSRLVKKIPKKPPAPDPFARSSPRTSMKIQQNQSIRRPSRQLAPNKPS

Row | IC50 [µM] | Structure (SMILES)
1 | 5 to 50 | COc1ccc(S(=O)(=O)N(C)C[C@H](N)c2ccc(C(=O)Nc3ccncc3)cc2)cc1 [Compound 153, 4-{(R)1-Amino-2-[(4-methoxy-benzenesulfonyl)-methyl-amino]-ethyl}-N-pyridin-4-yl-benzamide dihydrochloric acid salt]
2 | < 0.5 | COc1ccc(S(=O)(=O)N(C)C[C@@H](N)c2ccc(C(=O)Nc3ccncc3)cc2)cc1 [Compound 154, 4-{(S)1-Amino-2-[(4-methoxy-benzenesulfonyl)-methyl-amino]-ethyl}-N-pyridin-4-yl-benzamide dihydrochloric acid salt]
3 | < 0.5 | N[C@H](C(=O)NCc1ccccc1)c1ccc(C(=O)Nc2ccncc2)cc1 [Compound 155, 4-((S)-Amino-benzylcarbamoyl-methyl)-N-pyridin-4-yl-benzamide dihydrochloric acid salt]
4 | 0.5 to 5 | N[C@@H](C(=O)NCc1ccccc1)c1ccc(C(=O)Nc2ccncc2)cc1 [Compound 156, 4-((R)-Amino-benzylcarbamoyl-methyl)-N-pyridin-4-yl-benzamide dihydrochloric acid salt]
